Assay results published in ChEMBL document CHEMBL1201862, “PubChem BioAssay data set” (2004).
Activity calls are given as the source filed them.

Key:
[1] = inhibitors of firefly luciferase expression or activity, dose response, H4 neuroglioma cells, luminescence (AID 1990); type: functional, cell-based
[2] = inhibitors of SNCA 5'UTR-driven reporter translation, confirmation, H4 neuroglioma cells, luminescence (AID 1988); type: functional, cell-based
[3] = Luminescence Cell-Based Dose Response HTS to Identify Inhibitors of 5'UTR Stem-Loop Driven Prion Protein mRNA Translation in H4 Neuroglioblastoma Cells. [Related pubchem assays: 1827 (Project Summary), 1813 (Primary HTS)]; type: functional
[4] = HEp-2 cell cytotoxicity, dose response, cytotoxicity control for RSV inhibitor project, HTS (AID 2410); type: functional; settings: human respiratory syncytial virus
[5] = Luminescence Cell-Based Dose Retest to Confirm Inhibitors of Cancer Stem Cells. [Related pubchem assays (depositor defined):AID2717, AID2721]; type: functional; settings: Homo sapiens
[6] = inhibitors of intracellular T. cruzi replication, confirmation, NIH3T3 host cells, beta-gal luminescence (AID 2044); type: functional, cell-based;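 note: intracellular parasites grown in NIH/3T3 mouse fibroblasts as host cells; luminescent beta-galactosidase reporter signal from transgenic T. cruzi replicating inside host cells; inhibitors lower the luminescence signal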
[7] = cytotoxicity toward NIH3T3 fibroblasts, dose response, counter-screen, cell-based, ATP luminescence, mouse fibroblasts (AID 2010); type: functional;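 note: cells exposed to compound for about 90 hours before reading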
[8] = tested on: Streptococcus; test: Group A Streptococcus viability loss, dose response, counter-screen for streptokinase expression inhibitor project, luminescence, BacTiterGlo (AID 1915); type: functional, organism-based;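 note: potency for reduction of bacterial viability or growth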
[9] = molecular target: T1, Streptokinase A (Streptococcus pyogenes serotype M1, UniProt P10520); test: S. pyogenes streptokinase expression inhibitors, potency, dose response, plasminogen activation absorbance, OD405 (AID 1914); type: functional, Streptococcus pyogenes M1 GAS;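 note: secreted streptokinase activity via plasminogen activation per viability signal from cell pellet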
T1 sequence (P10520 whole entry): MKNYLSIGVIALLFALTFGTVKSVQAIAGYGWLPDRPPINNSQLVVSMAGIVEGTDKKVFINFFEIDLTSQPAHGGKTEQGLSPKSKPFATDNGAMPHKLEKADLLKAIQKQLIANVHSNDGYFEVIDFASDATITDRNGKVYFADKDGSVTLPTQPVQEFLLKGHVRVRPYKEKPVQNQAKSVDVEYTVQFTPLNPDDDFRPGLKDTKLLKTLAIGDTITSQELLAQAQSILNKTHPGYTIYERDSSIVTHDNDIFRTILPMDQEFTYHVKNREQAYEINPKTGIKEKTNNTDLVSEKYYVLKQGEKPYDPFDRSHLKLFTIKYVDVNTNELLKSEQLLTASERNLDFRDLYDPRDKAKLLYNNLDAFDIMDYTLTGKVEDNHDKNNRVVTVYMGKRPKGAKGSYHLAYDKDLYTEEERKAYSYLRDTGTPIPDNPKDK

[10] = tested on: Streptococcus sp. 'group A'; test: growth inhibition of control SK(-) GAS strain, dose response, counter-screen for streptokinase expression inhibitor project, luminescence, kanamycin, BacTiterGlo, confirmation (AID 1900); type: functional, organism-based
[11] = molecular target: Cytochrome P450 2C19 (Homo sapiens, UniProt P33261); test: Cytochrome panel assay with activity outcomes. Panel member name: p450-cyp2c19 Compounds with AC50 equal or less than 10 uM are considered active; type: functional; settings: read-out: AC50
Sequence of Cytochrome P450 2C19 (P33261 whole entry): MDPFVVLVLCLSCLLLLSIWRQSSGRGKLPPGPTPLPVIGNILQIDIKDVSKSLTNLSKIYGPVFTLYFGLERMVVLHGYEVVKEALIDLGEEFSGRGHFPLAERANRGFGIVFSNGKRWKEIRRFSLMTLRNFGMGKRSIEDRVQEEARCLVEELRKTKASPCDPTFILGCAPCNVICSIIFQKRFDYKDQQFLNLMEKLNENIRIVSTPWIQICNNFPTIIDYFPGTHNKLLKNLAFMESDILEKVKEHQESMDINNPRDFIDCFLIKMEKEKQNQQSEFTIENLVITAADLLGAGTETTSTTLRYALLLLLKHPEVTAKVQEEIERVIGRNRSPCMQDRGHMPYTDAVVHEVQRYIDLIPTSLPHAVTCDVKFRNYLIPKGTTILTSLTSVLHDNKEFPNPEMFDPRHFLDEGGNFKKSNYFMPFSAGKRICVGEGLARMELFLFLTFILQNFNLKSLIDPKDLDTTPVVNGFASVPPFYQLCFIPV

[12] = molecular target: Cytochrome P450 2D6 (Homo sapiens, UniProt P10635);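 note: CYP2D6 member of a cytochrome P450 panel assay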
Sequence of Cytochrome P450 2D6 (P10635 whole entry): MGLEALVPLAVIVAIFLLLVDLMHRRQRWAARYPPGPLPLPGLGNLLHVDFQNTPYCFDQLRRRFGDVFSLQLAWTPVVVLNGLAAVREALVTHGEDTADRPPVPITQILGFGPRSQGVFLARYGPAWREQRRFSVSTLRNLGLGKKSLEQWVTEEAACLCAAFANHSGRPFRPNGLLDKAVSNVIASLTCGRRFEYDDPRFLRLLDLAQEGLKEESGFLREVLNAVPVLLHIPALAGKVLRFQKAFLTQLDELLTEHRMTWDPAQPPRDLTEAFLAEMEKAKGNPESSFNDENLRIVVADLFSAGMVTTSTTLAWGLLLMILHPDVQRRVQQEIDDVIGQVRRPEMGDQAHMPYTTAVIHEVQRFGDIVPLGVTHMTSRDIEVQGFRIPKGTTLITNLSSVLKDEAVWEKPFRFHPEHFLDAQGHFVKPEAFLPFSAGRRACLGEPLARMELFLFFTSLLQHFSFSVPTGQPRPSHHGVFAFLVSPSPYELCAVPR

[13] = molecular target: Cytochrome P450 2C9 (Homo sapiens, UniProt P11712)
Sequence of Cytochrome P450 2C9 (P11712 whole entry): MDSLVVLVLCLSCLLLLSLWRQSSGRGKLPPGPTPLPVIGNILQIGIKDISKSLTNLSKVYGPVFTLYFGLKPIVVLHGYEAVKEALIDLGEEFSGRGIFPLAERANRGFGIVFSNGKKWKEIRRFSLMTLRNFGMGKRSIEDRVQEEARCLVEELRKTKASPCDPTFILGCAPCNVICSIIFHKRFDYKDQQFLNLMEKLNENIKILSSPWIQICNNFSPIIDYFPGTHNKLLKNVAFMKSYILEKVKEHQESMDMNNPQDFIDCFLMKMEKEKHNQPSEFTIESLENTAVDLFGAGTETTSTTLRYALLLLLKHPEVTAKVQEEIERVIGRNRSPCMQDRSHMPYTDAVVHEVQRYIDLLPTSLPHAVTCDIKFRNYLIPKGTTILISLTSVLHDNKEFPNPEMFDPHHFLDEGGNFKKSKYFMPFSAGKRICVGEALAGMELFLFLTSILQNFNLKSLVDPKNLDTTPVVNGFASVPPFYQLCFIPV

[14] = Luminescence Cell-Based Dose Confirmation HTS to Identify Inhibitors of Platelet Dense Granule Release. [Related pubchem assays: 1663 (Primary HTS), 1678 (Summary of Project)]; type: functional
[15] = molecular target: Luciferin 4-monooxygenase (Photinus pyralis, UniProt P08659); test: firefly luciferase enzyme inhibitors, dose response, biochemical, luminescence (AID 1891)
Sequence of Luciferin 4-monooxygenase (P08659 whole entry): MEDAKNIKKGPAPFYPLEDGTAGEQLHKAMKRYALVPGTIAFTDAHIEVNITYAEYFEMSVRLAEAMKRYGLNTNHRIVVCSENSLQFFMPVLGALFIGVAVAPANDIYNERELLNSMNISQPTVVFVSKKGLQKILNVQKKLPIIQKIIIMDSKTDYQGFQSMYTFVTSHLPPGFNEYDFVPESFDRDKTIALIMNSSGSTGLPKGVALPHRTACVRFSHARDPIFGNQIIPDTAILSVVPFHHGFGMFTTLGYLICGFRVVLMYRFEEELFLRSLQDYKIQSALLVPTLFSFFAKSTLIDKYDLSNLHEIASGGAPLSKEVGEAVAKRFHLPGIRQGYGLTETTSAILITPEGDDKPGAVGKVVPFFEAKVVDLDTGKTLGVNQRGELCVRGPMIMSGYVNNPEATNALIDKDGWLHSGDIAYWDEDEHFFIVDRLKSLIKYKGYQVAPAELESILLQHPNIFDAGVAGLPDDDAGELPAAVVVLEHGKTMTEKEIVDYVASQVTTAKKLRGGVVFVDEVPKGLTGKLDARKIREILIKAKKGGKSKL

[16] = molecular target: T2, Replicative DNA helicase DnaB (Mycobacterium tuberculosis, UniProt P9WMR3); test: DnaB intein splicing inhibitors, dose response, biochemical, cell-free fluorescence (AID 449749); type: functional
T2 sequence (P9WMR3 whole entry): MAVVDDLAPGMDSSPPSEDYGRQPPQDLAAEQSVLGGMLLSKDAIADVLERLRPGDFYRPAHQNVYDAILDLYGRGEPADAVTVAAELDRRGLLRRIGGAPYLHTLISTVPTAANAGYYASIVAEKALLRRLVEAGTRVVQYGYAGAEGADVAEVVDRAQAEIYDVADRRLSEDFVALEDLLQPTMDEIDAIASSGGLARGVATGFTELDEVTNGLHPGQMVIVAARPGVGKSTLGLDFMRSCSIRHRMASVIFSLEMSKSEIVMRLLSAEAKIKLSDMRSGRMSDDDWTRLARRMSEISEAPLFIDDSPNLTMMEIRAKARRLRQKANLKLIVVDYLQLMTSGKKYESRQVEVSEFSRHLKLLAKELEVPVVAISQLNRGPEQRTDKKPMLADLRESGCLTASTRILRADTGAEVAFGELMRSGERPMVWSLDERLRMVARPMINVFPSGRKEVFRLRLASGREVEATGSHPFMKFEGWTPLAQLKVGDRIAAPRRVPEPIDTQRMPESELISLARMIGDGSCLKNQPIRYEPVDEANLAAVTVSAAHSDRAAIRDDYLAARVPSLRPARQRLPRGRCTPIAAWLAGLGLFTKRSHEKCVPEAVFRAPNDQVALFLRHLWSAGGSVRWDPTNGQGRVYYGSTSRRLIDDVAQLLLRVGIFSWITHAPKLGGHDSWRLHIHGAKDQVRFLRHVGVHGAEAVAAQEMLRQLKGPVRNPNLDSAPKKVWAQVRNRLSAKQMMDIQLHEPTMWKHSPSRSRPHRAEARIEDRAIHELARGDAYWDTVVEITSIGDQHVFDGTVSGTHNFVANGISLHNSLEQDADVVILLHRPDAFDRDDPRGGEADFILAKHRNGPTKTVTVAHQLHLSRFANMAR

[17] = molecular target: T3, Protein RecA (Mycobacterium tuberculosis, UniProt P9WHJ3); test: Fluorescence Cell-Free Homogeneous Dose Retest to Identify Inhibitors of RecA-Intein Splicing Activity. [Related pubchem assays (depositor defined):AID2097, AID2223, AID489010, AID492950]; type: functional
T3 sequence (P9WHJ3 whole entry): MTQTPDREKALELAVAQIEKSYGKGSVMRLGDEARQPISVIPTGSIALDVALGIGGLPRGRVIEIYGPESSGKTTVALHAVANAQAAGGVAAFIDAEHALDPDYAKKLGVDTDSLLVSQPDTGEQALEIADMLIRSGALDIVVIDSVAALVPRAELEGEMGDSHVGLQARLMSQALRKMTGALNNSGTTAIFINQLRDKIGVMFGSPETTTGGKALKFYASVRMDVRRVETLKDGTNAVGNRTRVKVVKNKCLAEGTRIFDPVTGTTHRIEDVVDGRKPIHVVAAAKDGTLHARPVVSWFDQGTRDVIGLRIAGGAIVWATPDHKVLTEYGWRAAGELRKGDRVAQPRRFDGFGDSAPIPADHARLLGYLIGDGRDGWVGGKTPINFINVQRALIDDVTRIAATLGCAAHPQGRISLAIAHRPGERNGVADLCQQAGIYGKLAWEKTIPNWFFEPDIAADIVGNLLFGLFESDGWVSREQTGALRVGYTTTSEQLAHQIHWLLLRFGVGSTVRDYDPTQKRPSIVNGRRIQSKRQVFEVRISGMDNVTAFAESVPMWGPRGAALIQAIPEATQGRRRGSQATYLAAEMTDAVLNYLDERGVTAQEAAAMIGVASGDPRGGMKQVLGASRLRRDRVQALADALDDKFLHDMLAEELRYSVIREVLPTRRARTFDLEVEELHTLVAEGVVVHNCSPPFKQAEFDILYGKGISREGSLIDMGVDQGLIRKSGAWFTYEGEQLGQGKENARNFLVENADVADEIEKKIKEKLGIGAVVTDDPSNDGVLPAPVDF

[18] = molecular target: T4, RNA-binding protein pos-1 (Caenorhabditis elegans, UniProt G5EF15); test: inhibitors of POS-1/mex-3 RNA binding, dose response, biochemical, fluorescence polarization (AID 1964);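 note: purified POS-1 fused to maltose binding protein made in E. coli; potency of compounds blocking POS-1 binding to fluorescent RNA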
T4 sequence (G5EF15 whole entry): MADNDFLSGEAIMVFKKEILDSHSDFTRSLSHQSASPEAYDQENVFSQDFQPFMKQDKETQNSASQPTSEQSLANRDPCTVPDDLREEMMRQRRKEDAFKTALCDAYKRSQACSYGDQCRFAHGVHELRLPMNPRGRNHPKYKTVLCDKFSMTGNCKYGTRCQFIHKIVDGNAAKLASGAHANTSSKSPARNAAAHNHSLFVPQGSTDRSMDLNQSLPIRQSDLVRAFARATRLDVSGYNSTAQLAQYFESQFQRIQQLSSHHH

[19] = molecular target: T5, Zinc finger protein mex-5 (Caenorhabditis elegans, UniProt Q9XUB2); test: MEX-5/TCR-2 RNA interaction inhibitors, dose response, biochemical, C. elegans, fluorescence polarization (AID 1960)
T5 sequence (Q9XUB2 whole entry): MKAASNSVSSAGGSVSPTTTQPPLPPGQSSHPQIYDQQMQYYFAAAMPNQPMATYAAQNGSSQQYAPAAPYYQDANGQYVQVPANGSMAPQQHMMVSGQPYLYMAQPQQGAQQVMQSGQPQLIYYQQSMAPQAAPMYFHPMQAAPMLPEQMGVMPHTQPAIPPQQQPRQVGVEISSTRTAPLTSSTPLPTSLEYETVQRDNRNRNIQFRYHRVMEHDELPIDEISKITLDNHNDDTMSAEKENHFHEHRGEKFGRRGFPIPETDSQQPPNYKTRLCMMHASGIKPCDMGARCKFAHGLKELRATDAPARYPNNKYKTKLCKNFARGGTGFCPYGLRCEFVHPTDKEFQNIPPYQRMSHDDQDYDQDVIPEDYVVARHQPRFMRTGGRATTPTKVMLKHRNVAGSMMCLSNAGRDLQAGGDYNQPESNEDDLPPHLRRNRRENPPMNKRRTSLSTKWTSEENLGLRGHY

Compound | EC50 [1] | EC50 [2] | EC50 [3] | CC50 [4] | further results
CCOC(=O)C1=C(CN2CCN(C(=O)c3ccco3)CC2)NC(=O)NC1c1ccccc1 (stereo not given) | 42.2 µM (active) | > 120 µM (not active) | > 120 µM (not active) |  | 
C=CCOc1cccc(/C=C2\C(=O)N(Cc3ccc(C)cc3)C(C)=C2C(=O)OC)c1 |  |  |  | 29.7 µM (active) | AC50 [5]: 5.38 µM (active)
Cc1ccc(C#CC[N+](C)(C)CC#Cc2ccccc2)cc1 | > 120 µM (not active) | > 120 µM (not active) | > 120 µM (not active) |  | EC50 [6]: 1.92 µM (active); EC50 [7]: > 60 µM (not active)
O=C(c1cccs1)N1N=C(c2ccccc2)CC1c1ccccc1 (stereo not given) |  |  |  |  | EC50 [8]: 16.2 µM (active); EC50 [9]: > 150 µM (not active); EC50 [10]: 6.85 µM (active)
CC(C)CC(=O)Nc1cccc(-c2csc(-c3ccccc3)n2)c1 |  |  |  | 17.9 µM (active) | 
Cc1ccc2c(CSc3nc4ccccc4c(=O)n3CCCO)cc(=O)oc2c1C |  |  |  | 30.5 µM (active) | 
CCCCOC(=O)c1ccc(NC(=S)N2CCN(c3ncc4c(=O)c(C(=O)O)cn(CC)c4n3)CC2)cc1 |  |  |  |  | EC50 [8]: 2.62 µM (active); EC50 [9]: > 150 µM (not active); EC50 [10]: 0.801 µM (active)
Cc1c(N=C2N=C(NC(=O)c3cccs3)c3ccccc32)c(=O)n(-c2ccccc2)n1C |  |  |  | 18.7 µM (active) | 
COc1ccc2c(c1)CCc1cnc(N)nc1-2 |  |  |  | 24.4 µM (active) | 
COCCNC(=O)Nc1ccc2nc(-c3cccs3)c(-c3cccs3)nc2c1 |  |  |  | 33.1 µM (active) | 
Cn1c(SCC(=O)NC2(C#N)CCCCC2)nnc1-c1cccnc1 |  |  |  |  | EC50 [8]: > 150 µM (not active); EC50 [9]: > 150 µM (not active); EC50 [10]: > 150 µM (not active)
Cc1cc(C)n(-c2nc3ccccc3c(=O)n2OCC(=O)OCc2ccccc2)n1 | 19.3 µM (active) | > 120 µM (not active) | 17.6 µM (active) |  | 
Cc1ccc(/C=C/C(=O)c2nc3ccccc3[nH]2)cc1 |  |  |  | 46.1 µM (active) | AC50 [11]: 15.8 nM (inconclusive); AC50 [12]: 28.2 µM (inconclusive); AC50 [13]: 7.94 µM (inconclusive)
N=C(NOC(=O)c1ccc(Cl)cc1)c1ccccn1 |  |  |  | 16.4 µM (active) | EC50 [14]: 7.38 µM (active); EC50 [15]: 1.53 µM (active)
Cc1ccc(CN=C(N)Nc2nc(C)cc(C)n2)cc1 | > 120 µM (not active) | 7.78 µM (active) | 9.36 µM (active) |  | 
Cc1ccc(CNC(=O)C2CCN(S(=O)(=O)c3ccc4c(c3)CC(C)N4C(=O)C3CCC3)CC2)o1 (stereo not given) | 13 µM (active) | 12.3 µM (active) | > 120 µM (not active) |  | 
CC(=O)c1ccc(NC2CC(O)C(O)CO2)cc1 (stereo not given) | > 120 µM (not active) | 16.1 µM (active) | > 120 µM (not active) |  | 
CCn1c(=O)c(C(=O)NNC(=O)Cc2ccccc2)c(O)c2ccccc21 |  |  |  |  | EC50 [8]: > 150 µM (not active); EC50 [9]: > 150 µM (not active); EC50 [10]: 9.03 µM (active)
CC(C)c1ccc(NC(=O)C2CCCN(S(=O)(=O)c3ccc4c(c3)C(C)(C)C(=O)N4C)C2)cc1 (stereo not given) |  |  |  | 17.6 µM (active) | 
Cc1cc(C)c2nc(SCCc3ccccc3)nc(C)c2c1 |  |  |  |  | EC50 [8]: > 150 µM (not active); EC50 [9]: 12.5 µM (active); EC50 [10]: 33.4 µM (active)
Cc1ccc2c(c1)-c1c(ssc1=S)C(C)(C)N2C(=O)CSc1nncn1C | 46.1 µM (active) | > 120 µM (not active) | > 120 µM (not active) |  | AC50 [16]: 6.63 µM (active); EC50 [17]: 9.47 µM (active)
COc1ccc(-c2cc(C(=O)N/N=C(\C)c3ccco3)c3ccccc3n2)c(OC)c1 |  |  |  |  | EC50 [8]: > 150 µM (not active); EC50 [9]: > 150 µM (not active); EC50 [10]: > 150 µM (not active); EC50 [18]: > 300 µM (not active); EC50 [19]: > 300 µM (not active)
